Measurements: patent US6762170B1, “2-(purin-9-yl)-tetrahydrofuran-3,4-diol derivatives” (SmithKlineBeecham Corporation, priority 1998, dated 2004)
Counter-ions that a name gives are not always drawn.

How the values were obtained:
Format in all cases: cell-based
[1] = target: T1, Adenosine 1 receptor (Homo sapiens, UniProt P30542); assay: Agonist activity against adenosine 1 receptor subtype (CHO cells, forskolin-enhanced cAMP, SPAP reporter); conditions: EC50 ratio to NECA; transfected CHO cells, forskolin-enhanced cAMP reflected by SPAP
T1 construct: expressed in transfected cells; host or cells: Chinese hamster ovary (CHO) cells, co-transfected with a CRE-SPAP reporter
T1 sequence (P30542 1-326): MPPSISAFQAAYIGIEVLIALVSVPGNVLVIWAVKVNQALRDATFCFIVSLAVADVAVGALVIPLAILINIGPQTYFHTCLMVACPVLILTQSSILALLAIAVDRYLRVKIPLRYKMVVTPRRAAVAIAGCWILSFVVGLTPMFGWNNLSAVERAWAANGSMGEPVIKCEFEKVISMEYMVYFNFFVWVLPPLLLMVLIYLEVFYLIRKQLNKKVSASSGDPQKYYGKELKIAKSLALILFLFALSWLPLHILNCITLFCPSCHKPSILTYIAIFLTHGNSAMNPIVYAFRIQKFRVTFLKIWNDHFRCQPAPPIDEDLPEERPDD
Description: (§1) (1) Agonist Activity Against Adenosine 2a, Adenosine 1 and Adenosine 3 Receptor Subtypes.
(§2) Agonist selectivity of compounds against other human adenosine receptors is determined using Chinese hamster ovary (CHO) cells transfected with the gene for the relevant human adenosine receptor following a method based on that of Castanon and Spevak, 1994. The CHO cells are also transfected with cyclic AMP response elements promoting the gene for secreted placental alkaline phosphatase (SPAP) (Wood, 1995). The effect of test compounds may be determined by their effects on basal levels of cAMP (A2a) or on forskolin-enhanced cAMP (A1 and A3) as reflected by changes in levels of SPAP. EC50 values for compounds may then be determined as a ratio to that of the non-selective agonist N-ethyl carboxamide adenosine (NECA).
(§3) Values given in the Table are EC50 values as a ratio of that of NECA.

[2] = target: T2, Adenosine 3 receptor (Homo sapiens, UniProt P0DMS8); assay: Agonist activity against adenosine 3 receptor subtype (CHO cells, forskolin-enhanced cAMP, SPAP reporter); conditions: EC50 ratio to NECA; transfected CHO cells, forskolin-enhanced cAMP reflected by SPAP
T2 construct: expressed in transfected cells; host or cells: Chinese hamster ovary (CHO) cells, co-transfected with a CRE-SPAP reporter
T2 sequence (P0DMS8 1-318): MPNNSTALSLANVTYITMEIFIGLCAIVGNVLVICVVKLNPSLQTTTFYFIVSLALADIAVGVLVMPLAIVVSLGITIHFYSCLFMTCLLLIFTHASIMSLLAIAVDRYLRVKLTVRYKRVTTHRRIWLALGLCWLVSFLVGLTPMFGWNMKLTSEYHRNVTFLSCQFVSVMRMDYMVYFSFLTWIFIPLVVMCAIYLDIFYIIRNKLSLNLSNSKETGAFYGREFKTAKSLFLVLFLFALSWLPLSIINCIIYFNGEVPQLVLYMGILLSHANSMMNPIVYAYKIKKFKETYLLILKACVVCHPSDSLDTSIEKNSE
Description: as §1, §2, §3

[3] = target: T3, Adenosine 2a receptor (Homo sapiens, UniProt P29274); assay: Agonist activity against adenosine 2a receptor subtype (CHO cells, cAMP response element/SPAP reporter); conditions: EC50 ratio to NECA; transfected CHO cells, basal cAMP reflected by SPAP
T3 construct: expressed in transfected cells; host or cells: Chinese hamster ovary (CHO) cells, co-transfected with a CRE-SPAP reporter
T3 sequence (P29274 whole entry): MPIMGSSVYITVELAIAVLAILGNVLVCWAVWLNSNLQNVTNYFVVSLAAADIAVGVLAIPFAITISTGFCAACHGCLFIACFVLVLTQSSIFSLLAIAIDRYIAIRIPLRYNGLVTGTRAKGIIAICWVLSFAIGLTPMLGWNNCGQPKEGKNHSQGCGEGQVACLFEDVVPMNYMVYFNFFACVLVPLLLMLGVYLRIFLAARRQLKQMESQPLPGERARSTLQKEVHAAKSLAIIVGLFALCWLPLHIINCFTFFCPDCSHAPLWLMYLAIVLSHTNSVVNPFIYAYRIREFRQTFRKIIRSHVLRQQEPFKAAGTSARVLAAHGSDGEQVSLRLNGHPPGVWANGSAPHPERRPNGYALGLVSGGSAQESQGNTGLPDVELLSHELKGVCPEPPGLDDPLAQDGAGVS
Description: as §1, §2, §3

Row | A1 (EC50 values as a ratio of that of NECA) [1] | A3 (EC50 values as a ratio of that of NECA) [2] | A2a (EC50 values as a ratio of that of NECA) [3] | Structure (SMILES)
1 | 1624.29 | >267 | 1.55 | CCc1cc(C2OC(n3cnc4c(NCCC5CCCCC5)nc(NCCc5cn(C)cn5)nc43)C(O)C2O)on1.O=CO.O=CO [Example 21, (2R,3R,4S,5S)-2-{6-(2-Cyclohexyl-ethylamino)-2-[2-(1-methyl-1H-imidazol-4-yl)-ethylamino]-purin-9-yl}5-(3-ethyl-isoxazol-5-yl)-tetrahydro-furan-3,4-diol diformate]
2 | 22.53 | >340 | 4.86 | CCc1cc(C2OC(n3cnc4c(NC(CO)Cc5ccccc5)nc(NCCN5CCOCC5)nc43)C(O)C2O)on1 [Example 51, (2S,3S,4R,5R)-2-(3-Ethyl-isoxazol-5-yl)-5-[6-(1S-hydroxymethyl-2-phenyl-ethylamino)-2-(2-morpholin-4-yl-ethylamino)-purin-9-yl]-tetrahydro-furan-3,4-diol diformate]
3 | 80.76 | >525 | 0.79 | CCC(CC)Nc1nc(NCCN2CCCCC2)nc2c1ncn2C1OC(c2cc(CO)no2)C(O)C1O.O=CO.O=CO [Example 57, (2R,3R,4S,5S)-2-[6-(1-Ethyl-propylamino)-2-(2-piperidin-1-yl-ethylamino)-purin-9-yl]-5-(3-hydroxymethyl-isoxazol-5-yl)-tetrahydro-furan-3,4-diol diformate]
4 | >=3263 | >282 | 13.4 | CCc1cc(C2OC(n3cnc4c(NCC(c5ccccc5)c5ccccc5)nc(NCCNC(=N)N)nc43)C(O)C2O)on1 (stereo not drawn) [Example 23, N-2-{6-(2,2-Diphenyl-ethylamino)-9-[5S-(3-ethyl-isoxazol-5-yl)-3R,4S-dihydroxy-tetrahydro-furan-2R-yl]-9H-purin-2-ylamino}-ethyl)-guanidine diformate]
5 | >=309.4 | >312 | 0.35 | CCc1cc([C@H]2O[C@@H](n3cnc4c(NCCC(C)(C)C)nc(NCCc5cn(C)cn5)nc43)[C@H](O)[C@@H]2O)on1.O=CO.O=CO [Example 7, (2R,3R,4S,5S)-2-{6-(3,3-Dimethyl-butylamino)-2-[2-(1-methyl-1H-imidazol-4-yl)-ethylamino]-purin-9-yl}-5-(3-ethyl-isoxazol-5-yl)-tetrahydro-furan-3,4-diol diformate]
6 | 103.8 | >198 | 5.46 | CCc1cc(C2OC(n3cnc4c(NCCS(=O)(=O)NC)nc(NCCNC(=N)N)nc43)C(O)C2O)on1 (stereo not drawn) [Example 25, 2-[2-9-[5S-(3-Ethyl-isoxazol-5-yl)-3R,4S-dihydroxy-tetrahydro-furan-2R-yl]-2-(2-guanidino-ethylamino)-9H-purin-6-ylamino]-ethanesulfonic acid methylamide diformate]
7 | 26.05 | >146 | 3.66 | CCc1cc(C2OC(n3cnc4c(NC5CCOCC5)nc(NC(CO)Cc5ccccc5)nc43)C(O)C2O)on1 [Example 15, (2S,3S,4R,5R)-2-(3-Ethyl-isoxazol-5-yl)-5-[2-(1S-hydroxymethyl-2-phenyl-ethylamino)-6-(tetrahydro-pyran-4-ylamino)-purin-9yl]-tetrahydro-furan-3,4-diol formate]
8 | 27.24 | >298 | 5.03 | CCc1cc(C2OC(n3cnc4c(NC5CCN(C(C)=O)CC5)nc(NC5CCC(N)CC5)nc43)C(O)C2O)on1 (stereo not drawn) [Example 29, 1-(4-{2-(trans-4-Amino-cyclohexylamino)-9-[5S-(3-ethyl-isoxazol-5-yl)-3R,4S-dihydroxy-tetrahydro-furan-2R-yl]-9H-purin-6-ylamino}-piperidin-1-yl)-ethanone diformate]
9 | 136.56 | >207 | 2.65 | CCc1cc(C2OC(n3cnc4c(NC(CC)CC)nc(NCCc5ccccn5)nc43)C(O)C2O)on1 [Example 37, (2S,3S,4R,5R)-2-(3-Ethyl-isoxazol-5-yl)-5-[61-ethyl-propylamino)-2-(2-pyridin-2-yl-ethylamino)-purin-9-yl]-tetrahydro-furan-3,4-diol diformate]
10 | 231 | >375 | 1.32 | CCc1cc(C2OC(n3cnc4c(NCCc5ccccc5)nc(NCCN5CCCCC5)nc43)C(O)C2O)on1.O=CO.O=CO [Example 3, (2R,3R,4S,5S)-2-(3-Ethyl-isoxazol-5-yl)-5-[6-phenethylamino-2-(2-piperidin-1-yl-ethylamino)-purin-9-yl]-tetrahydro-furan-3,4-diol diformate]
11 | 31.75 | >176 | 3.79 | CCc1cc(C2OC(n3cnc4c(NC5CCS(=O)(=O)CC5)nc(NC5CCC(N)CC5)nc43)C(O)C2O)on1 [Example 32, (2R,3R,4S,5S)-2-[2-trans-4-Amino-cyclohexylamino)-6-(1-dioxo-hexahydro-1λ6-thiopyran-4-ylamino)-purin-9-yl]-5-(3-ethyl-isoxazol-5-yl)-tetrahydro-furan-3,4-diol diformate]
12 | 2907.96 | >395 | 27.39 | CCc1cc([C@H]2O[C@@H](n3cnc4c(NCCC(C)(C)C)nc(NCCN5CCCCC5)nc43)[C@H](O)[C@@H]2O)on1.O=CO.O=CO [Example 41, (2R,3R,4S,5S)-2-[6-(3,3-Dimethyl-butylamino)-2-(2-piperidin-1-yl-ethylamino)-purin-9-yl]-5-(3-ethyl-isoxazol-5-yl)-tetrahydro-furan-3,4-diol diformate]
13 | 44.21 | >262 | 16.03 | CCc1cc(C2OC(n3cnc4c(NC(CO)Cc5ccccc5)nc(NCCN)nc43)C(O)C2O)on1 [Example 64, (2R,3R,4S,5S)-2-[2-(2-Amino-ethylamino)-6-(1S-hydroxymethyl-2-phenyl-ethylamino)-purin-9-yl]-5-(3-ethyl-isoxazol-5-yl)-tetrahydro-furan-3,4-diol diformate]
14 | 30.1 | >237 | 0.11 | CCc1cc([C@H]2O[C@@H](n3cnc4c(NC(CC)CC)nc(NCCc5cn(C)cn5)nc43)[C@H](O)[C@@H]2O)on1.O=CO.O=CO [Example 5, (2S,3S,4R,5R)-2-(3-Ethyl-isoxazol-5-yl)-5-{6-(1-ethyl-propylamino)-2-[2-(1-methyl-1H-imidazol-4-yl)-ethylamino]-purin-9-yl}-tetrahydro-furan-3,4-diol diformate]
15 | 77.1 | >254 | 4.99 | CCc1cc([C@H]2O[C@@H](n3cnc4c(NC5CCOCC5)nc(NCCN5CCCCC5)nc43)[C@H](O)[C@@H]2O)on1.O=CO.O=CO [Example 14, (2S,3S,4R,5R)-2-(3-Ethyl-isoxazol-5-yl)-5-[2-(2-piperidin-1-yl-ethylamino)-6-(tetrahydro-pyran-4-ylamino)-purin-9-yl]-tetrahydro-furan-3,4-diol diformate]

Row | Structure (SMILES) | A1 (EC50 values as a ratio of that of NECA) [1] | A3 (EC50 values as a ratio of that of NECA) [2] | A2a (EC50 values as a ratio of that of NECA) [3]
16 | CCc1cc([C@H]2O[C@@H](n3cnc4c(NC(CC)CC)nc(NCCN5CCCCC5)nc43)[C@H](O)[C@@H]2O)on1.O=CO.O=CO [Example 6, (2S,3S,4R,5R)-2-(3-Ethyl-isoxazol-5-yl)-5-[6-(1-ethyl-propylamino)-2-(2-piperidin-1-yl-ethylamino)-purin-9-yl]-tetrahydro-furan-3,4-diol diformate] | 66.4 | >393 | 0.49
